# From patent publication US7069876B2, “Methods for raising pre-adult anadromous fish” (MariCal, Inc., priority 2000, dated 2006)
# System: shark kidney calcium receptor (SKCaR)
# Test: FURA-2 ratio imaging fluorescence assay in HEK cells expressing SKCaR
# Assay type: cell-based, dogfish (Squalus acanthias)
# Conditions: 10 mM amino acid or AA Mixture; extracellular Ca2+ 0.5–20 mM (FIG. 52)
# From the text: Full length recombinant dogfish (Squalus acanthias) shark kidney calcium receptor ([…] NO.: 17) was expressed in human embryonic kidney […] ligated into the mammalian expression vector […] and transfected into HEK cells using standard techniques. The presence of SKCaR protein in transfected cells was verified by western blotting. Activation of SKCaR and its ability to respond to individual amino acids or mixtures thereof was quantified using a well characterized FURA-2 ratio imaging fluorescence assay where increases in intracellular Ca^2+ produced by SKCaR activation are detected and expressed as % normalized intracellular calcium response to receptor activation. Bai, M., S. et al., J. Biol. Chem., 32:19537-19545 (1996); Conigrave, A, et al., Proc. Nat. Acad. Sci. 97:4814-4819 (2000). […] Baseline extracellular Ca^2+ concentration was 0.5 mM. Aliquots of Ca^2+ were added to produce final extracellular concentrations of 2.5 mM, 5 mM, 7.5 mM, 10 mM and 20 mM Ca^2+ with changes in the fluorescence recorded.
compound,measurement,value
"CC[C@H](C)[C@H](N)C(=O)O [Ile, L-Isoleucine]",effect on SKCaR's response to extracellular Ca2+,increase SKCaR's response to a given Ca^2+ concentration
"N[C@@H](Cc1ccccc1)C(=O)O [Phe, Phenylalanine]",effect on SKCaR's response to extracellular Ca2+,increase SKCaR's response to a given Ca^2+ concentration
